These are literature values, as cited in US20080063689A1, “Dietary supplements containing anthocyanins and methods for using same to enhance creatine absorption and vasodilation” (priority 2006, published 2008).

The series relates to pancreatic beta cells. Conditions: glucose concentrations within physiological norms.

For the substance cyanidin-3-glycoside, the “ability to stimulate insulin secretion” value is “highest abilities to stimulate insulin secretion”.

On to delphinium 3-glycoside, for which the “ability to stimulate insulin secretion” value is “highest abilities to stimulate insulin secretion”.
